Key:
mutant EGFR-L858R-T790M = molecular target: T1, mutant EGFR-L858R-T790M (Homo sapiens, UniProt P00533, L858R/T790M); assay: Mutant EGFR protein in NCI-H1975 tumors after single oral dose (western blot); assay type: in vivo, female BALB/c nude mice
T1 construct: female BALB/c nude mice bearing NCI-H1975 NSCLC tumors; from tissue; host or cells: NCI-H1975 subcutaneous xenograft tumours from female BALB/c nude mice
Protocol: (§1) Compound 1 was administered as a single oral (PO) dose at 10, 25, or 50 mg/kg to female BALB/c nude mice with NCI-H1975 tumors. At 4h, 6h or 12h tumors were harvested and the protein expression of mutant EGFR-L858R and phospho-EGFR was measured by western blot.
(§2) A xenograft study was conducted in female BALB/c nude mice bearing NCI-H1975 NSCLC tumors. Female nude mice were inoculated subcutaneously in the right flank with 5×10^6 tumors cells in 0.1 mL of PBS. Tumor volume was measured twice weekly in two dimensions using calipers, and volume (mm^3) was calculated using the formula: V=0.5 a×b2 where a and b are the long and short diameters of the tumor in mm, respectively. […]
(§3) All agents were administered to mice bearing NCI-H1975 tumors on day 0 as a single oral (PO) dose. […] Protein concentration was quantified using a Pierce™ BCA Protein Assay Kit, samples were reduced, and equal protein amounts were then loaded onto a western blot gel for analysis. Tumors were analyzed for EGFR Receptor L858R Mutant Specific (CST, 3197) or Phospho-EGFR Receptor Tyr1068 (CST, 2234) expression. The intensity of individual bands was measured for data analysis using Image Studio software. Protein expression was quantitated in relation to the reference protein, alpha-tubulin, to control for total protein concentration. […]

EGFR L858R = EGFR L858R (Homo sapiens, UniProt P00533, L858R); assay: KINOMEscan scanMAX, EGFR-L858R; assay type: binding; design: purchased Eurofins DiscoverX KINOMEscan scanMAX; host or cells: E. coli BL21-derived (T7 phage) or HEK-293; details: 100 nM
Protocol: Kinome-wide binding selectivity of CFT8919 was assessed via the KINOMEscan scanMAX assay at Eurofins DiscoverX (Freemont, CA, USA). Compound was tested at 100 nM against a diverse panel of 468 kinases. The size of circles was mapped onto the kinase phylogenetic tree utilizing DiscoverX TREEspot using <50% of % control as a cutoff.
For most assays, kinase-tagged T7 phage strains were grown in parallel in 24-well blocks in an E. coli host derived from the BL21 strain. E. coli were grown to log-phase and infected with T7 phage from a frozen stock (multiplicity of infection=0.4) and incubated with shaking at 32° C. until lysis (90-150 minutes). The lysates were centrifuged (6,000×g) and filtered (0.2 μm) to remove cell debris. The remaining kinases were produced in HEK-293 cells and subsequently tagged with DNA for qPCR detection. Streptavidin-coated magnetic beads were treated with biotinylated small molecule ligands for 30 minutes at room temperature to generate affinity resins for kinase assays. The liganded beads were blocked with excess biotin and washed with blocking buffer (SeaBlock (Pierce), 1% BSA, 0.05% Tween 20, 1 mM DTT) to remove unbound ligand and to reduce non-specific phage binding. […] Test compounds were prepared as 40× stocks in 100% DMSO and directly diluted into the assay. […] The kinase concentration in the eluates was measured by qPCR.

[1] = system: intracranial NCI-H1975-luciferase expressing tumors; assay: NCI-H1975-luc intracranial tumor model (intracarotid artery injection): BLI, body weight, survival; assay type: in vivo, female BALB/c nude mice; details: intracranial model with intracarotid implantation, oral dosing
Protocol: Female BALB/c nude mice were inoculated by intracarotid injection with NCI-H1975-luc cells (1×10^5 in 100 μL PBS) for tumor development. Tumor growth was monitored using imaging analysis. Tumor-bearing mice were weighed and injected intraperitoneally with luciferin at a dose of 150 mg/kg and anesthetized with a mixture gas of oxygen and isoflurane. 10 minutes post luciferin injection, mice were imaged using IVIS Lumina III machine and total bioluminescence signal (BLI, photons/s) was measured in a region of interest (ROI). BLI from ROI were quantified and used as an indicator of tumor burden. Twenty days post tumor cell inoculation mice were randomized into groups of 6 with a mean BLI of 1.08×10^6 photons/s. Compound 1 was dosed orally (PO) twice a day at 50 mg/kg and was formulated in 20% PEG400+80% (25% SBECD, “sulfobutylether-β-cyclodextrin”) in double distilled H2Om which was also used as the vehicle control. Body weight and MTV were measured on a 2× weekly schedule. Survival data was also measured and is represented as median survival time±SEM.

[2] = molecular target: T2, Phospho-EGFR Receptor Tyr1068 (Homo sapiens, UniProt P00533, L858R/T790M); assay: Phospho-EGFR in NCI-H1975 tumors after single oral dose (western blot); assay type: in vivo, female BALB/c nude mice
T2 construct: female BALB/c nude mice bearing NCI-H1975 NSCLC tumors; from tissue; host or cells: NCI-H1975 subcutaneous xenograft tumours from female BALB/c nude mice
Protocol: as §1, §2, §3

[3] = after a single oral dose, NCI-H1975 tumors
[4] = single PO dose 10, 25 or 50 mg/kg, 4, 6 and 12 hours

O=C1CC[C@H](Nc2ccc(N3CCC(O)(CC(=O)N4CC5(C4)CN(c4ccc(-c6cc(F)c7c(c6)C(=O)N(C(C(=O)Nc6nccs6)c6ncn8c6CCC8)C7)cc4)C5)CC3)c(F)c2)C(=O)N1 (stereo partly drawn) [Compound 1, 2-(6,7-dihydro-5H-pyrrolo[1,2-c]imidazol-1-yl)-2-[6-[4-[2-[2-[1-[4-[[(3S)-2,6-dioxo-3-piperidyl]amino]-2-fluoro-phenyl]-4-hydroxy-4-piperidyl]acetyl]-2,6-diazaspiro[3.3]heptan-6-yl]phenyl]-4-fluoro-1-oxo-isoindolin-2-yl]-N-thiazol-2-yl-acetamide]
mutant EGFR degraded in vivo (mutant EGFR-L858R-T790M; [3]): up to 85%
mutant EGFR-L858R protein expression in tumors (mutant EGFR-L858R-T790M; [4]): potent EGFR degradation
percent binding remaining (EGFR L858R): < 50%
efficacy on NCI-H1975-luc BLI (tumor burden) [1]: tumor regression
phospho-EGFR decrease in vivo [2, 3]: > 95%
phospho-EGFR protein expression in tumors [2, 4]: phospho-EGFR inhibition
